Test results taken from PubChem BioAssay (NCI).
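Cultured in 96-well plates, cells were exposed to test compound for 48 hours across five concentrations. Definition used: TGI = concentration required for complete inhibition of growth.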

Columns and labels:
Assay in all cases: inhibition of tumour cell growth, NCI panel, 48 h
OVCAR-8 ovarian = test system: OVCAR-8 ovarian
SN12C renal = test system: SN12C renal
LOX IMVI melanoma = test system: LOX IMVI melanoma
M14 melanoma = test system: M14 melanoma
MOLT-4 leukemia = test system: MOLT-4 leukemia
OVCAR-3 ovarian = test system: OVCAR-3 ovarian
OVCAR-5 ovarian = test system: OVCAR-5 ovarian
HCT-15 colon = test system: HCT-15 colon
786-0 renal = test system: 786-0 renal
RXF 393 renal = test system: RXF 393 renal
IGROV1 ovarian = test system: IGROV1 ovarian
HCT-116 colon = test system: HCT-116 colon
ACHN renal = test system: ACHN renal
OVCAR-4 ovarian = test system: OVCAR-4 ovarian
A549 NSCLC = test system: A549 NSCLC
KM12 colon = test system: KM12 colon
HOP-18 NSCLC = test system: HOP-18 NSCLC
NCI-H460 lung = test system: NCI-H460 lung
SK-MEL-28 melanoma = test system: SK-MEL-28 melanoma
K-562 leukemia = test system: K-562 leukemia
COLO 205 colon = test system: COLO 205 colon
KM20L2 colon = test system: KM20L2 colon
XF 498 CNS = test system: XF 498 CNS
LXFL 529 NSCLC = test system: LXFL 529 NSCLC
CCRF-CEM leukemia = test system: CCRF-CEM leukemia
SF-539 CNS = test system: SF-539 CNS
MALME-3M melanoma = test system: MALME-3M melanoma
SF-268 CNS = test system: SF-268 CNS
NCI-H522 lung = test system: NCI-H522 lung
RXF-631 renal = test system: RXF-631 renal
HOP-62 NSCLC = test system: HOP-62 NSCLC
SK-MEL-2 melanoma = test system: SK-MEL-2 melanoma
UACC-257 melanoma = test system: UACC-257 melanoma
NCI-H226 lung = test system: NCI-H226 lung
DMS 114 small cell lung = test system: DMS 114 small cell lung
A498 renal = test system: A498 renal
SF-295 CNS = test system: SF-295 CNS
SNB-75 CNS = test system: SNB-75 CNS
SK-MEL-5 melanoma = test system: SK-MEL-5 melanoma
SW-620 colon = test system: SW-620 colon
HT29 colon = test system: HT29 colon
HCC-2998 colon = test system: HCC-2998 colon
EKVX NSCLC = test system: EKVX NSCLC
TK-10 renal = test system: TK-10 renal
SNB-78 CNS = test system: SNB-78 CNS
CAKI-1 renal = test system: CAKI-1 renal
U251 CNS = test system: U251 CNS
SNB-19 CNS = test system: SNB-19 CNS
UACC-62 melanoma = test system: UACC-62 melanoma
M19-MEL melanoma = test system: M19-MEL melanoma
NCI-H23 lung = test system: NCI-H23 lung
SK-OV-3 ovarian = test system: SK-OV-3 ovarian

CN(C)CCn1cnc2sc3ccccc3c21
TGI (OVCAR-8 ovarian): > 100 µM | TGI (SN12C renal): > 100 µM | TGI (LOX IMVI melanoma): > 100 µM | TGI (M14 melanoma): > 100 µM | TGI (MOLT-4 leukemia): > 100 µM | TGI (OVCAR-3 ovarian): > 100 µM | TGI (OVCAR-5 ovarian): > 100 µM | TGI (HCT-15 colon): > 100 µM | TGI (786-0 renal): > 100 µM | TGI (RXF 393 renal): > 100 µM | TGI (IGROV1 ovarian): > 100 µM | TGI (HCT-116 colon): > 100 µM | TGI (ACHN renal): > 100 µM | TGI (OVCAR-4 ovarian): > 100 µM | TGI (A549 NSCLC): > 100 µM | TGI (KM12 colon): > 100 µM | TGI (HOP-18 NSCLC): > 100 µM | TGI (NCI-H460 lung): > 100 µM | TGI (SK-MEL-28 melanoma): > 100 µM | TGI (K-562 leukemia): > 100 µM | TGI (COLO 205 colon): > 100 µM | TGI (KM20L2 colon): > 100 µM | TGI (XF 498 CNS): > 100 µM | TGI (LXFL 529 NSCLC): > 100 µM | TGI (CCRF-CEM leukemia): > 100 µM | TGI (SF-539 CNS): > 100 µM | TGI (MALME-3M melanoma): > 100 µM | TGI (SF-268 CNS): > 100 µM | TGI (NCI-H522 lung): > 100 µM | TGI (RXF-631 renal): > 100 µM | TGI (HOP-62 NSCLC): > 100 µM | TGI (SK-MEL-2 melanoma): > 100 µM | TGI (UACC-257 melanoma): > 100 µM | TGI (NCI-H226 lung): > 100 µM | TGI (DMS 114 small cell lung): > 100 µM | TGI (A498 renal): > 100 µM | TGI (SF-295 CNS): > 100 µM | TGI (SNB-75 CNS): 86.6 µM | TGI (SK-MEL-5 melanoma): > 100 µM | TGI (SW-620 colon): > 100 µM | TGI (HT29 colon): > 100 µM | TGI (HCC-2998 colon): > 100 µM | TGI (EKVX NSCLC): > 100 µM | TGI (TK-10 renal): > 100 µM | TGI (SNB-78 CNS): > 100 µM | TGI (CAKI-1 renal): > 100 µM | TGI (U251 CNS): > 100 µM | TGI (SNB-19 CNS): > 100 µM | TGI (UACC-62 melanoma): > 100 µM | TGI (M19-MEL melanoma): > 100 µM | TGI (NCI-H23 lung): > 100 µM | TGI (SK-OV-3 ovarian): > 100 µM
